What follows are molecules tested on fungi (Candida albicans and Aspergillus niger) (assay: Antimicrobial performance against fungi (AATCC 100:2012, summary in words)). Settings: single agent, 6% o.w.f. chemical, adhered to cotton.
Type: cell-based
Protocol: (§1) All microbiological tests were performed with cultures of the bacteria Escherichia coli American Type Culture Collection (ATCC) 25922, Staphylococcus aureus ATCC 6538, Pseudomonas aeruginosa ATCC 15442, Salmonella enterica ATCC 10708, and of the fungi Candida albicans ATCC 10231, and Aspergillus niger ATCC 16404.

Molecule | Efficiency for killing fungi
CCCC1COC(Cn2cncn2)(c2ccc(Cl)cc2Cl)O1 (stereo not drawn) [propiconazole, reference compound] | efficient for killing fungi
polyhexamethylene biguanide [PHMB] | perform poorly
silver | perform poorly

Same assay, conditions: single agent, 6% o.w.f. chemical, adhered to polyester

Molecule | Efficiency for killing fungi
CCCCCCCCCCCCCCCCCC[N+](C)(C)CCC[Si](OC)(OC)OC [dimethyloctadecyl[3-(trimethoxysilyl)propyl] ammonium chloride] | not efficient for killing fungi
CCCC1COC(Cn2cncn2)(c2ccc(Cl)cc2Cl)O1 (stereo not drawn) [propiconazole, reference compound] | works well against fungi
silver | not efficient for killing fungi

These molecules were tested on bacteria (Escherichia coli, Staphylococcus aureus, Pseudomonas aeruginosa, and Salmonella enterica) (assay: Antimicrobial performance against bacteria (AATCC 100:2012, summary in words)). Settings: single agent, 6% o.w.f. chemical, adhered to cotton.
Type: cell-based
Protocol: as §1

Molecule | Efficiency for killing bacteria
CCCC1COC(Cn2cncn2)(c2ccc(Cl)cc2Cl)O1 (stereo not drawn) [propiconazole, reference compound] | not efficient for killing bacteria
polyhexamethylene biguanide [PHMB] | about equally efficient for killing bacteria
silver | about equally efficient for killing bacteria

Same assay, conditions: single agent, 6% o.w.f. chemical, adhered to polyester

Molecule | Efficiency for killing bacteria
CCCCCCCCCCCCCCCCCC[N+](C)(C)CCC[Si](OC)(OC)OC [dimethyloctadecyl[3-(trimethoxysilyl)propyl] ammonium chloride] | about equally efficient in killing bacteria
CCCC1COC(Cn2cncn2)(c2ccc(Cl)cc2Cl)O1 (stereo not drawn) [propiconazole, reference compound] | about as efficient against bacteria as silver and quaternary ammonium organosilane
silver | about equally efficient in killing bacteria

From patent US20210162091A1, “WASH-DURABLE, FLUID ABSORBENT SUBSTRATE WITH ANTIMICROBIAL PROPERTIES AND/OR IMPROVED WASHABILITY, AND HYGIENE PRODUCT SUCH AS REUSABLE SANITARY NAPKIN” (Livinguard AG, priority 2015, published 2021)
